# Laboratory results: patent US10065990B2, “Cyclic peptide compound, and preparation method, pharmaceutical composition and use thereof” (HANGZHOU GUANYU BIO-MEDICAL CO., LTD, priority 2013, dated 2018)
# How the values were obtained:
# HDAC7 = biological target: T1, HDAC7 (Homo sapiens, UniProt Q8WUI4); assay: HDAC biochemical activity measurement (fluorescent substrate deacetylation);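 also: fluorogenic deacetylation assay using acetyl-lysine substrate at 20 µM, enzyme and compound incubated 30 min at 37 °C, then developer added, fluorescence read at 360/460 nm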
# T1 sequence (Q8WUI4 1-952): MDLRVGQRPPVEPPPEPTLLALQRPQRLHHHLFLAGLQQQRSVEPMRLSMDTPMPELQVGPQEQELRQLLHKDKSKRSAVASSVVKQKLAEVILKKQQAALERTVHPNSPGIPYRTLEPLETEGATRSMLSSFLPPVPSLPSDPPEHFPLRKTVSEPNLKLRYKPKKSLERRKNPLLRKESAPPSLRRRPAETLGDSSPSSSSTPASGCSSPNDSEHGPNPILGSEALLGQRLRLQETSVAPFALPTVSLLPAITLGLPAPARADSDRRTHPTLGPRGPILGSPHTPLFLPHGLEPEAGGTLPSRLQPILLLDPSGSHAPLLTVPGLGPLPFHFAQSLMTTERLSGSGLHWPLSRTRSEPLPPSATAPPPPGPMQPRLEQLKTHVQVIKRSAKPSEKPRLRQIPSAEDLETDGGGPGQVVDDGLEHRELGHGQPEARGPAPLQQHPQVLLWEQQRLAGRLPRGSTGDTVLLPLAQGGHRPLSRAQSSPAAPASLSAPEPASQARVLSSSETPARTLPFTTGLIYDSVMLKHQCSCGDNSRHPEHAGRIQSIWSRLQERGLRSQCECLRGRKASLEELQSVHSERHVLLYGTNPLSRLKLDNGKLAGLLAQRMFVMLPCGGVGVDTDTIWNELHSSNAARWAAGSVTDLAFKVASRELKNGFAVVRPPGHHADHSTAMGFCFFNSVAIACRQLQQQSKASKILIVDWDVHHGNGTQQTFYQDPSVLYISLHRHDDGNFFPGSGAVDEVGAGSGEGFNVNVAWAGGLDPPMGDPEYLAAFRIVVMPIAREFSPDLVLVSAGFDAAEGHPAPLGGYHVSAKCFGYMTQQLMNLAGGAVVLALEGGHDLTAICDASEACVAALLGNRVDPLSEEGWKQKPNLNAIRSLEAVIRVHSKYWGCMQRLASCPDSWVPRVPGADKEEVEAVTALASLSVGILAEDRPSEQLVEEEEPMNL
# [1] = system: Bel-7402 (human hepatoma cells); assay: MTT cancer cell growth inhibition; format: cell-based; conditions: Homo sapiens, Bel-7402, 72 h, MTT, 72 hours incubation, Bel-7402 cells; read-out: GI50 Bel-7402
# Outline: (§1)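 Seed 1500 cells/well, incubate overnight. Add compound, 10^−5 to 10^−10 M final, n=3; culture 72 h, 37° C., 5% CO2. Add MTT, 4 h. Discard supernatant, dissolve in DMSO. Read 570 nm; calculate viability and GI50.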
# [2] = system: MOLT-4 (human acute lymphoblastic leukemia cells); assay: MTT cancer cell growth inhibition; format: cell-based; conditions: Homo sapiens, MOLT-4, 72 h, MOLT-4 cells, MTT, 72 hours incubation; read-out: GI50 Mol
# Outline: as §1
# [3] = system: Huh-7 (human hepatoma cells); assay: MTT cancer cell growth inhibition; format: cell-based; conditions: Homo sapiens, Huh-7, 72 h, MTT, 72 hours incubation, Huh-7 cells; read-out: GI50 Huh-7
# Outline: as §1
# [4] = system: MDA-MB-231 (breast cancer cells); assay: MTT cancer cell growth inhibition; format: cell-based; conditions: Homo sapiens, MDA-MB-231, 72 h, read-out: GI50 MDA-MB-231, MTT, 72 hours incubation, MDA-MB-231 cells
# Outline: as §1
# [5] = system: H1975 (non-small cell lung adenocarcinoma); assay: MTT cancer cell growth inhibition; format: cell-based; conditions: Homo sapiens, NCI-H1975, 72 h, MTT, 72 hours incubation, H1975 cells; read-out: GI50 H1975
# Outline: as §1
# [6] = system: HCC827 (human non-small cell lung cancer cells); assay: MTT cancer cell growth inhibition; format: cell-based; conditions: Homo sapiens, HCC827, 72 h, MTT, 72 hours incubation, HCC827 cells; read-out: GI50 HCC827
# Outline: as §1
# [7] = system: SGC-7901 (human gastric cancer cells); assay: MTT cancer cell growth inhibition; format: cell-based; conditions: Homo sapiens, SGC-7901, 72 h, MTT, 72 hours incubation, SGC-7901 cells; read-out: GI50 SGC-7901
# Outline: as §1
# [8] = system: lncap (prostate cancer cells); assay: MTT cancer cell growth inhibition; format: cell-based; conditions: Homo sapiens, LNCaP, 72 h, lncap cells, MTT, 72 hours incubation; read-out: GI50 lnca
# Outline: as §1
# [9] = system: U937 (human leukemia cells); assay: MTT cancer cell growth inhibition; format: cell-based; conditions: Homo sapiens, U-937, 72 h, U937 cells, MTT, 72 hours incubation; read-out: GI50 U93
# Outline: as §1
# [10] = system: HT1080 (human fibrosarcoma cells); assay: MTT cancer cell growth inhibition; format: cell-based; conditions: Homo sapiens, HT-1080, 72 h, HT1080 cells, MTT, 72 hours incubation; read-out: GI50 HT1
# Outline: as §1
# [11] = system: K562 (human leukemia cells); assay: MTT cancer cell growth inhibition; format: cell-based; conditions: Homo sapiens, K562, 72 h, MTT, 72 hours incubation, K562 cells; read-out: GI50 K562
# Outline: as §1
# [12] = system: N-87 (human gastric cancer cells); assay: MTT cancer cell growth inhibition; format: cell-based; conditions: Homo sapiens, 72 h, MTT, 72 hours incubation, N-87 cells; read-out: GI50 N-87
# Outline: as §1
# [13] = system: KBM-5 (human chronic myelogenous leukemia); assay: MTT cancer cell growth inhibition; format: cell-based; conditions: Homo sapiens, KBM5, 72 h, MTT, 72 hours incubation, KBM-5 cells; read-out: GI50 KBM-5
# Outline: as §1
# [14] = system: KBM5-T315I (human chronic myelogenous leukemia); assay: MTT cancer cell growth inhibition; format: cell-based; conditions: Homo sapiens, 72 h, MTT, 72 hours incubation, KBM5-T315I cells; read-out: GI50 KBM5-T315I
# Outline: as §1
# [15] = system: A549 (human lung cancer cells); assay: MTT cancer cell growth inhibition; format: cell-based; conditions: Homo sapiens, A549, 72 h, A549 cells, MTT, 72 hours incubation; read-out: GI50 A54
# Outline: as §1
# [16] = system: PANC-1 (Pac-1, human pancreatic cancer cells); assay: MTT cancer cell growth inhibition; format: cell-based; conditions: Homo sapiens, PANC-1, 72 h, PANC-1 cells, MTT, 72 hours incubation; read-out: GI50 PAN
# Outline: as §1
# [17] = system: MCF-7 (human breast cancer cells); assay: MTT cancer cell growth inhibition; format: cell-based; conditions: Homo sapiens, MCF7, 72 h, MCF-7 cells, 72 hours incubation, read-out: GI50 MCF
# Outline: as §1
# [18] = system: BGC-823 (human gastric cancer cells); assay: MTT cancer cell growth inhibition; format: cell-based; conditions: Homo sapiens, BGC-823, 72 h, BGC-823 cells, MTT, 72 hours incubation; read-out: GI50 BG
# Outline: as §1
# [19] = system: Hela (human cervical cancer cells); assay: MTT cancer cell growth inhibition; format: cell-based; conditions: Homo sapiens, HeLa, 72 h, Hela cells, MTT, 72 hours incubation; read-out: GI50 Hela
# Outline: as §1
# [20] = system: DU145 (human prostate cancer cells); assay: MTT cancer cell growth inhibition; format: cell-based; conditions: Homo sapiens, DU-145, 72 h, DU145 cells, MTT, 72 hours incubation; read-out: GI50 Du1
# Outline: as §1
Structure (SMILES),IC50 (μM) HDAC7 (HDAC7),GI50 [1] [nM],GI50 [2] [nM],GI50 [3] [nM],GI50 [4] [nM],GI50 [5] [nM],GI50 [6] [nM],GI50 [7] [nM],GI50 [8] [nM],GI50 [9] [nM],GI50 [10] [nM],GI50 [11] [nM],GI50 [12] [nM],GI50 [13] [nM],GI50 [14] [nM],GI50 [15] [nM],GI50 [16] [nM],GI50 [17] [nM],GI50 [18] [nM],GI50 [19] [nM],also measured
C/C=C1\NC(=O)c2ccc(SCC)c(n2)CNC(=O)C[C@@H](/C=C/CCSC(=O)CCCCCCC)OC(=O)[C@H](C(C)C)NC1=O [Compound 249],no activity,41,50,43,29,76,23,33,40,70,40,72,45,47,27,50,20,70,30,80,GI50 [20]: 30 nM
C/C=C1\NC(=O)c2nc(ccc2SCC)CNC(=O)C[C@@H](/C=C/CCSC(=O)CCCCCC)OC(=O)[C@H](C(C)C)NC1=O [Compound 250],no activity,58,30,27,21,38,45,63,50,80,60,27,43,53,79,40,30,40,40,70,GI50 [20]: 50 nM
C/C=C1\NC(=O)c2cc(SCC)cc(n2)CNC(=O)C[C@@H](/C=C/CCSC(=O)CCCCCC)OC(=O)[C@H](C(C)C)NC1=O [Compound 251],no activity,42,70,55,38,63,53,49,90,30,20,35,36,66,81,60,50,40,30,20,GI50 [20]: 20 nM
C/C=C1\NC(=O)c2ccc(SCC)c(n2)CNC(=O)C[C@@H](/C=C/CCSC(=O)CCCCCC)OC(=O)[C@H](C(C)C)NC1=O [Compound 252],no activity,79,90,26,42,90,76,35,50,40,40,81,67,72,81,50,60,20,30,50,GI50 [20]: 70 nM
C/C=C1\NC(=O)c2nc(ccc2SCC)CNC(=O)C[C@@H](/C=C/CCSC(=O)CCCCC)OC(=O)[C@H](C(C)C)NC1=O [Compound 253],no activity,87,80,72,69,57,37,18,20,30,50,11,35,16,78,30,60,60,50,50,GI50 [20]: 20 nM
C/C=C1\NC(=O)c2cc(SCC)cc(n2)CNC(=O)C[C@@H](/C=C/CCSC(=O)CCCCC)OC(=O)[C@H](C(C)C)NC1=O [Compound 254],no activity,31,40,46,81,18,35,87,10,40,60,78,64,53,42,40,10,50,60,40,GI50 [20]: 60 nM
C/C=C1\NC(=O)c2ccc(SCC)c(n2)CNC(=O)C[C@@H](/C=C/CCSC(=O)CCCCC)OC(=O)[C@H](C(C)C)NC1=O [Compound 255],no activity,35,50,45,23,68,57,48,50,20,60,56,51,32,37,30,40,80,30,10,GI50 [20]: 40 nM
